Patent US7183383B2, “Uses of collagen IV” (The University of Arkansas for Medical Sciences, priority 2002, dated 2007)

Columns and labels:
[1] = tested on: collagen IV synthesis in renal proximal tubular cells; experiment: Newly synthesized collagen IV (immunoprecipitation, autoradiography, densitometry); format: cell-based, rabbit
Protocol: Immunoprecipitation of newly synthesized and deposited collagen IV was performed using the method of Niki et al., with some modifications (34). On days 1, 4, and 6 after sublethal S-(1,2-dichlorovinyl)-L-cysteine injury, renal proximal tubular cells were metabolically labeled for 24 hours with 25 μCi/ml of [^35S]-L-methionine. Cell monolayers were washed with PBS, solubilized for 30 minutes in lysis buffer (20 mM Tris-HCl (pH 8.8), 2 mM EDTA, 0.2 mM PMSF, 10 mM N-ethylmaleimide, 1% Triton X-100, 1% sodium deoxycholic acid, 150 mM NaCl, and 1 mM EGTA) containing protease inhibitors (25 μg/ml pepstatin A, 12.5 μg/ml leupeptin, 12.5 μg/ml aprotinin), and centrifuged at 15,000×g for 10 minutes at 4° C. The resulting supernatants (soluble fraction, cell-associated collagen) were transferred to fresh tubes, snap frozen in liquid N2, and stored at −80° C. […] Protein concentration in cell-associated and ECM-associated fractions was determined using a Coomassie protein microassay (Pierce, Rockford, Ill.) with BSA as the standard. […]
(§1) Radiolabeled collagen IV was separated by SDS-PAGE and visualized by autoradiography (22). […] After film development, densitometry of the resulting 206 kDa bands was calculated using NIH Image software.

[2] = tested on: collagen IV deposition in renal proximal tubular cells; experiment: Newly deposited collagen IV (immunoprecipitation, autoradiography, densitometry); format: cell-based, rabbit
Protocol: Immunoprecipitation of newly synthesized and deposited collagen IV was performed using the method of Niki et al., with some modifications (34). On days 1, 4, and 6 after sublethal S-(1,2-dichlorovinyl)-L-cysteine injury, renal proximal tubular cells were metabolically labeled for 24 hours with 25 μCi/ml of [^35S]-L-methionine. Cell monolayers were washed with PBS, solubilized for 30 minutes in lysis buffer (20 mM Tris-HCl (pH 8.8), 2 mM EDTA, 0.2 mM PMSF, 10 mM N-ethylmaleimide, 1% Triton X-100, 1% sodium deoxycholic acid, 150 mM NaCl, and 1 mM EGTA) containing protease inhibitors (25 μg/ml pepstatin A, 12.5 μg/ml leupeptin, 12.5 μg/ml aprotinin), and centrifuged at 15,000×g for 10 minutes at 4° C. The resulting supernatants (soluble fraction, cell-associated collagen) were transferred to fresh tubes, snap frozen in liquid N2, and stored at −80° C. Pelleted material (insoluble fraction, ECM-associated collagen) was resuspended in pellet solubilization buffer (20 mM Tris-HCl (pH 8.8), 2 mM EDTA, 0.2 mM PMSF, 10 mM N-ethylmaleimide, 1% sodium dodecyl sulfate, and 10 mM dithiothreitol), sonicated, boiled for 5 minutes, and incubated in the presence of iodoacetamide (25 mM) for 30 minutes at 37° C. with shaking. Samples were centrifuged at 15,000×g for 10 minutes at 4° C. Supernatants were then transferred to fresh microcentrifuge tubes, snap frozen in liquid N2, and stored at −80° C. Protein concentration in cell-associated and ECM-associated fractions was determined using a Coomassie protein microassay (Pierce, Rockford, Ill.) with BSA as the standard. Sample aliquots equaling 0.5 mg of total protein were diluted 3-fold in immunoprecipitation buffer (20 mM Tris-HCl (pH 8.8), 2 mM EDTA, 0.2 mM PMSF, 10 mM N-ethylmaleimide) and precleared with 20 μl (50% slurry) of Protein G-agarose beads for 2 hours. Samples were then incubated overnight with 0.05 mg of an anti-collagen IV monoclonal antibody (clone M3F7) at 4° C. with vigorous shaking. Samples were incubated for 2 hours at 4° C. with shaking in the presence of goat anti-mouse IgG at a concentration in two-fold excess of that of the primary antibody. Immune complexes were precipitated for 2 hours at 4° C. with shaking using 40 μl (50% slurry) of Protein G-agarose beads.
To collect the collagen IV immune complexes, samples were centrifuged at 15,000×g for 1 minute at 4° C. […]
as §1

[3] = tested on: prolyl hydroxylase activity in renal proximal tubular cells; experiment: Proline hydroxylation in newly synthesized collagen IV (dual labeling); format: cell-based, rabbit; conditions: day 1 after DCVC
Source text: Proline hydroxylation in collagen molecules occurs at the 4-trans position. Therefore, the extent of proline hydroxylation can be estimated by the loss of hydrogen from the 4-trans position of proline in the hydroxylation reaction. A previously described dual-labeling technique for the determination of proline hydroxylation was modified using [^14C]-L-proline and 4-[^3H]-L-proline incorporation into collagen IV and measuring the ratio of [^3H]:[^14C] in collagen IV molecules (5). A greater extent of proline hydroxylation at the 4-trans position of proline will result in a decrease in the ratio of [^3H]:[^14C] in newly synthesized collagen molecules due to the loss of [^3H]. Renal proximal tubular cells were dual-labeled for 24 hours with [^14C]-L-proline ([…]) and 4-[^3H]-L-proline (62.5 μCi/ml) immediately after S-(1,2-dichlorovinyl)-L-cysteine exposure. Cell-associated and deposited proteins were harvested, and collagen IV was immunoprecipitated as described above. Immunoprecipitated collagen IV was visualized by SDS-PAGE as described above, the 206 kDa bands in the destained gels were excised, and the protein was extracted with 90% hyamine hydroxide overnight at 37° C. [^14C]-Proline and 4-[^3H]-proline in collagen IV was determined using liquid scintillation spectrometry, and the extent of proline hydroxylation was calculated as the ratio of [^3H]:[^14C].

[4] = 37° C.; cited from earlier work

O=C1O[C@H]([C@@H](O)CO)C(O)=C1OP(=O)(O)O [L-ascorbic acid-2-phosphate, L-Ascorbic acid-2-phosphate]
collagen IV synthesis, 500 μM compared to 50 μM AscP ([1]; day 1, uninjured RPTC): decreased
collagen IV deposition in DCVC-injured RPTC ([2]; 500 μM AscP, throughout the experiment): maintained collagen IV deposition at levels equal to that of controls
collagen IV deposition by uninjured RPTC, pharmacological vs physiological AscP ([2]; uninjured RPTC, not statistically significant): numerical increase
ratio of 4-[^3H]-L-proline:[^14C]-L-proline greater than controls ([3]; 500 μM AscP): approximately 45%
stable in culture media [4]: ≥ 7 days

N[C@@H](CSC(Cl)=CCl)C(=O)O [S-(1,2-dichlorovinyl)-L-cysteine]
increase in collagen IV synthesis ([1]; one day after DCVC, both 50 μM and 500 μM AscP): 1.8 fold
decrease in collagen IV deposition compared to controls ([2]; day 4 after DCVC, physiological AscP, not statistically significant): approximately 50%
collagen IV deposition ([2]; one day after DCVC, 50 μM AscP): significantly inhibited
ratio of 4-[^3H]-L-proline:[^14C]-L-proline greater than controls ([3]; 50 μM AscP, higher ratio = decreased proline hydroxylation): approximately 80%
